Source: patent publication US10344025B2, “GLS1 inhibitors for treating disease” (Board of Regents, The University of Texas System, priority 2014, dated 2019)

What was measured:
A549 cells = test: Proliferation Assay (A549 viability, Cell Titer Fluor, 72 hours); type: cell-based; conditions: Homo sapiens
Outline: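 Cell Titer Fluor fluorescence after 72 h compound treatment (0.5% DMSO, 37 °C, 5% CO2) of A549 cells plated 24 h earlier at 1000/well. Four-parameter logistic fitting gave IC50.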

[1] = target: purified recombinant human GAC (GLS1) (Homo sapiens (Human), UniProt O94925); test: GLS1 Enzymatic Activity Assay (dual-coupled enzymatic assay, resorufin/Amplex UltraRed readout); type: biochemical;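 also: glutamate from GAC coupled via glutamate oxidase and peroxidase to resorufin, read as fluorescence (ex 530, em 590 nm) kinetically or at 20 min, four-parameter logistic IC50 fit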
purified recombinant human GAC (GLS1), sequence (O94925 other isoform, or with tags, fused parts or gaps): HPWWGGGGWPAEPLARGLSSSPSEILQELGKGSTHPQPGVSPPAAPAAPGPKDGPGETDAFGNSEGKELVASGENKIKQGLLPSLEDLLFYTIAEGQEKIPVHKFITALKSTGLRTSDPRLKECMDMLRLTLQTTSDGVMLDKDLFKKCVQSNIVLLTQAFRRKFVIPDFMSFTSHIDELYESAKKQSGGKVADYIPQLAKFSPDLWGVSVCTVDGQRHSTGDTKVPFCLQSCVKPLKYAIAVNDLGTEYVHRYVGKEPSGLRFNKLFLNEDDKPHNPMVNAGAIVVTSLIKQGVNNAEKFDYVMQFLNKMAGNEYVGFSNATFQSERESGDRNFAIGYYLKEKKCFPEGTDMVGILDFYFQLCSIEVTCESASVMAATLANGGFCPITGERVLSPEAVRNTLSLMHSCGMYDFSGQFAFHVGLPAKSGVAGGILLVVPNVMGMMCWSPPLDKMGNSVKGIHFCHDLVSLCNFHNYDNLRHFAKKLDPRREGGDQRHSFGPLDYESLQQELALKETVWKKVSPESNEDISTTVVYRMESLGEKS

| EC50 (A549 cells; A549, 72 h) [nM] | IC50 [1] [nM] | SMILES | EC50 (A549 cells) [nM] |
| --- | --- | --- | --- |
| 100 to 500 | 100 to 500 | COCCNC(=O)c1nnc(CCCCn2cc(C(=O)NCc3cccc(C(F)(F)F)c3)nn2)s1 [Example 7, N-(2-methoxyethyl)-5-(4-(4-(3-(trifluoromethyl)benzylcarbamoyl)-1H-1,2,3-triazol-1-yl)butyl)-1,3,4-thiadiazole-2-carboxamide] |  |
| < 100 | < 100 | O=C(NCc1cccc(C2CC2)c1)c1cn(CCCCn2cc(C(=O)NCc3cc(C4CC4)ccn3)nn2)nn1 [Example 128, N-[(3-cyclopropylphenyl)methyl]-1-[4-(4-{[(4-cyclopropylpyridin-2-yl)methyl]carbamoyl}-1H-1,2,3-triazol-1-yl)butyl]-1H-1,2,3-triazole-4-carboxamide] |  |
| 500 to 5000 | 100 to 500 | Cc1ccc(CNC(=O)c2cn(CCCCc3nnc(C(=O)NCC4CC4)s3)nn2)cn1 [Example 63, N-(cyclopropylmethyl)-5-[4-(4-{[(6-methylpyridin-3-yl)methyl]carbamoyl}-1H-1,2,3-triazol-1-yl)butyl]-1,3,4-thiadiazole-2-carboxamide] |  |
| > 5000 | 100 to 500 | Cc1ccc(CC(=O)Nc2cn(CC(F)CCn3cc(C(=O)NCc4ncccc4F)nn3)nn2)cn1 (stereo not drawn) [Example 345, 1-(3-fluoro-4-{4-[2-(6-methylpyridin-3-yl)acetamido]-1H-1,2,3-triazol-1-yl}butyl)-N-[(3-fluoropyridin-2-yl)methyl]-1H-1,2,3-triazole-4-carboxamide] |  |
| 500 to 5000 | 100 to 500 | Cc1ccc(CC(=O)Nc2cn(CCCCn3cc(C(=O)NCc4cccnc4)nn3)nn2)cn1 [Example 322, 1-(4-{4-[2-(6-methylpyridin-3-yl)acetamido]-1H-1,2,3-triazol-1-yl}butyl)-N-(pyridin-3-ylmethyl)-1H-1,2,3-triazole-4-carboxamide] |  |
| 100 to 500 | < 100 | O=C(Cc1ccccn1)Nc1cn(CC(F)CCn2cc(C(=O)NCc3cc(C(F)(F)F)ccn3)nn2)nn1 (stereo not drawn) [Example 399, 1-(3-fluoro-4-{4-[2-(pyridin-2-yl)acetamido]-1H-1,2,3-triazol-1-yl}butyl)-N-{[4-(trifluoromethyl)pyridin-2-yl]methyl}-1H-1,2,3-triazole-4-carboxamide] |  |
| < 100 | < 100 | O=C(Cc1cccnc1)Nc1ccc(CCCCc2nnc(C(=O)NCc3ccccc3)s2)nn1 [Example 30, N-benzyl-5-(4-{6-[2-(pyridin-3-yl)acetamido]pyridazin-3-yl}butyl)-1,3,4-thiadiazole-2-carboxamide] |  |
| 500 to 5000 | 100 to 500 | CNC(=O)c1cn(CCC(F)Cn2cc(C(=O)NCc3cccc(C(=O)OC)c3)nn2)nn1 (stereo not drawn) [Example 185, methyl 3-{[(1-{2-fluoro-4-[4-(methylcarbamoyl)-1H-1,2,3-triazol-1-yl]butyl}-1H-1,2,3-triazol-4-yl)formamido]methyl} benzoate] |  |
| 100 to 500 | 100 to 500 | O=C(NCc1cc(C(F)(F)F)ccn1)c1cn(CCCCn2cc(C(=O)NCC3CCCCC3)nn2)nn1 [Example 90] |  |
| 500 to 5000 | 500 to 5000 | O=C(NCc1cc(C(F)(F)F)ccn1)c1cn(CCCCn2cc(C(=O)NC[C@H]3CC4CCC3O4)nn2)nn1 (stereo partly drawn) [Example 102, 1-[4-(4-{[(2R)-7-oxabicyclo[2.2.1]heptan-2-ylmethyl]carbamoyl}-1H-1,2,3-triazol-1-yl)butyl]-N-{[4-(trifluoromethyl)pyridin-2-yl]methyl}-1H-1,2,3-triazole-4-carboxamide] |  |
| < 100 | < 100 | O=C(Cc1cccc(OC(F)(F)F)c1)Nc1nnc(CCC(F)Cn2cc(C(=O)NCc3ccccn3)nn2)s1 (stereo not drawn) [Example 533, 1-[2-fluoro-4-(5-{2-[3-(trifluoromethoxy)phenyl]acetamido}-1,3,4-thiadiazol-2-yl)butyl]-N-(pyridin-2-ylmethyl)-1H-1,2,3-triazole-4-carboxamide] |  |
| < 100 | < 100 | Cc1ccc(CC(=O)Nc2cn(CCC(F)Cn3cc(C(=O)NCc4cc(OC(F)(F)F)ccc4F)nn3)nn2)cn1 (stereo not drawn) [Example 405, 1-(2-fluoro-4-{4-[2-(6-methylpyridin-3-yl)acetamido]-1H-1,2,3-triazol-1-yl}butyl)-N-{[2-fluoro-5-(trifluoromethoxy)phenyl]methyl}-1H-1,2,3-triazole-4-carboxamide] |  |
| 500 to 5000 | 100 to 500 | O=C(NCc1cccc(OC(F)(F)F)c1)c1cn(CCCCc2nnc(C(=O)NC3COC3)s2)nn1 [Example 51, N-(oxetan-3-yl)-5-{4-[4-({[3-(trifluoromethoxy)phenyl]methyl}carbamoyl)-1H-1,2,3-triazol-1-yl]butyl}-1,3,4-thiadiazole-2-carboxamide] |  |
| 500 to 5000 | 100 to 500 | O=C(CC1CCCC1)Nc1cn(CCCCn2cc(C(=O)NCc3ccccn3)nn2)nn1 [Example 277, 1-{4-[4-(2-cyclopentylacetamido)-1H-1,2,3-triazol-1-yl]butyl}-N-(pyridin-2-ylmethyl)-1H-1,2,3-triazole-4-carboxamide] |  |
| 100 to 500 | < 100 | O=C(NCc1ccc(F)cc1)c1cn(CCC(F)Cn2cc(C(=O)NCc3cc(C(F)(F)F)ccn3)nn2)nn1 (stereo not drawn) [Example 459, 1-[2-fluoro-4-(4-{[(4-fluorophenyl)methyl]carbamoyl}-1H-1,2,3-triazol-1-yl)butyl]-N-{[4-(trifluoromethyl)pyridin-2-yl]methyl}-1H-1,2,3-triazole-4-carboxamide] |  |
| < 100 | < 100 | O=C(Cc1cccc(OC(F)(F)F)c1)Nc1nnc(CCC(F)Cn2cc(C(=O)NCc3ccc(C(F)(F)F)nc3)nn2)s1 (stereo not drawn) [Example 498, 1-[2-fluoro-4-(5-{2-[3-(trifluoromethoxy)phenyl]acetamido}-1,3,4-thiadiazol-2-yl)butyl]-N-{[6-(trifluoromethyl)pyridin-3-yl]methyl}-1H-1,2,3-triazole-4-carboxamide] |  |
| 100 to 500 | < 100 | O=C(Cc1cccc(OC(F)(F)F)c1)Nc1cn(CC(F)CCn2cc(C(=O)NCc3ncccc3F)nn2)nn1 (stereo not drawn) [Example 341, 1-[3-fluoro-4-(4-{2-[3-(trifluoromethoxy)phenyl]acetamido}-1H-1,2,3-triazol-1-yl)butyl]-N-[(3-fluoropyridin-2-yl)methyl]-1H-1,2,3-triazole-4-carboxamide] |  |
| < 100 | < 100 | CC(=O)Nc1ccc(CCCCc2nnc(C(=O)NCc3cncc(C(F)(F)F)c3)s2)nn1 [Example 602, 5-(4-(6-acetamidopyridazin-3-yl)butyl)-N-((5-(trifluoromethyl)pyridin-3-yl)methyl)-1,3,4-thiadiazole-2-carboxamide] |  |
| 100 to 500 | 100 to 500 | O=C(CC1CCCC1)Nc1cn(CCCCn2cc(C(=O)NCc3cccnc3)nn2)nn1 [Example 309, 1-{4-[4-(2-cyclopentylacetamido)-1H-1,2,3-triazol-1-yl]butyl}-N-(pyridin-3-ylmethyl)-1H-1,2,3-triazole-4-carboxamide] |  |
| < 100 | < 100 | O=C(Cc1cc(Cl)ccc1F)Nc1cn(CCCCn2cc(C(=O)NCc3cccc(OC(F)(F)F)c3)nn2)nn1 [Example 385, 1-(4-{4-[2-(5-chloro-2-fluorophenyl)acetamido]-1H-1,2,3-triazol-1-yl}butyl)-N-{[3-(trifluoromethoxy)phenyl]methyl}-1H-1,2,3-triazole-4-carboxamide] |  |
| 500 to 5000 | 100 to 500 | O=C(NCc1cncc(C(F)(F)F)c1)c1cn(CCCCn2cc(C(=O)NCC3CCC3)nn2)nn1 [Example 93, N-(cyclobutylmethyl)-1-{4-[4-({[5-(trifluoromethyl)pyridin-3-yl]methyl}carbamoyl)-1H-1,2,3-triazol-1-yl]butyl}-1H-1,2,3-triazole-4-carboxamide] |  |
| 100 to 500 | < 100 | O=C(NCc1cccc(OC(F)(F)F)c1)c1cn(CCC(F)Cn2cc(C(=O)NCc3ncccc3F)nn2)nn1 (stereo not drawn) [Example 429, 1-{2-fluoro-4-[4-({[3-(trifluoromethoxy)phenyl]methyl}carbamoyl)-1H-1,2,3-triazol-1-yl]butyl}-N-[(3-fluoropyridin-2-yl)methyl]-1H-1,2,3-triazole-4-carboxamide] |  |
| 500 to 5000 | < 100 | CNC(=O)c1cn(CCCCc2ccc(NC(=O)[C@@H](C)c3ccccc3)nn2)nn1 [Example 179, N-methyl-1-(4-{6-[(2S)-2-phenylpropanamido]pyridazin-3-yl}butyl)-1H-1,2,3-triazole-4-carboxamide] |  |
| < 100 | < 100 | O=C(CN1CC(F)(F)C1)Nc1cn(CC(F)CCn2cc(C(=O)NCc3cc(OC(F)(F)F)ccc3F)nn2)nn1 (stereo not drawn) [Example 390, 1-(4-{4-[2-(3,3-difluoroazetidin-1-yl)acetamido]-1H-1,2,3-triazol-1-yl}-3-fluorobutyl)-N-{[2-fluoro-5-(trifluoromethoxy)phenyl]methyl}-1H-1,2,3-triazole-4-carboxamide] |  |
| 500 to 5000 | 100 to 500 | Cc1ccc(CNC(=O)c2cn(CCCCn3cc(NC(=O)Cc4cccnc4)nn3)nn2)cn1 [Example 315, N-[(6-methylpyridin-3-yl)methyl]-1-(4-{4-[2-(pyridin-3-yl)acetamido]-1H-1,2,3-triazol-1-yl}butyl)-1H-1,2,3-triazole-4-carboxamide] |  |

| SMILES | EC50 (A549 cells; A549, 72 h) [nM] | IC50 [1] [nM] | EC50 (A549 cells) [nM] |
| --- | --- | --- | --- |
| O=C(CN1CCC(F)(F)CC1)Nc1cn(CCCCn2cc(C(=O)NCc3cccc(OC(F)(F)F)c3)nn2)nn1 [Example 332, 1-(4-(4-(2-(4,4-difluoropiperidin-1-yl)acetamido)-1H-1,2,3-triazol-1-yl)butyl)-N-(3-(trifluoromethoxy)benzyl)-1H-1,2,3-triazole-4-carboxamide] |  | < 100 | 100 to 500 |
| CNC(=O)c1cn(C[C@H](F)CCc2ccc(NC(=O)Cc3cc(OC4CC(OCC(F)(F)F)C4)ccn3)nn2)nn1 (stereo partly drawn) [Example 269, (R)-1-(2-fluoro-4-(6-(2-(4-(3-(2,2,2-trifluoroethoxy)cyclobutoxy)pyridin-2-yl)acetamido)pyridazin-3-yl)butyl)-N-methyl-1H-1,2,3-triazole-4-carboxamide] | < 100 | < 100 |  |
